Test results as given in patent EP4032530B1, “PROLONGED-RELEASE FURAZIDIN COMPOSITION” (Adamed Pharma S.A., priority 2021, dated 2022).

Columns and labels:
[1] = Phase I pivotal food effect pharmacokinetic study FUR-PK-03-19 (755/19); type: in vivo, human; settings: PK phase I studies
Method: Study title: Randomized, open-label, three-period, cross-over, food effect pharmacokinetic study comparing bioavailability of furazidin, prolonged-release tablets, 200 mg having a composition of IR/1+MR/1 according to Example 1 in healthy subjects in different fed conditions.
Aim of the study: The main study objective was to evaluate the pharmacokinetic properties and to compare the bioavailability of the Test product in healthy volunteers under different fed conditions.
Study conduct: In this bioavailability study, the pharmacokinetic profile was tested for the Test formulation (prolonged-release bilayer tablet, IR/1+MR/1) having a strength of 200 mg furazidin. The bioavailability study was carried out under different fed conditions (after a high-protein meal or after a high-fat, high-calorie meal) and in fasting state in 30 healthy subjects. On the day of dosing, the subjects received randomly after an overnight fast a single dose of the modified-release formulation, administered on empty stomach (fasting conditions, Treatment A) or after a high-protein meal (Treatment B) or after a high-fat, high-calorie meal (Treatment C), each time with 240 mL of water. For each subject, there were 3 dosing periods, separated by a washout period of 7 days. […]
The pharmacokinetic data for plasma and urine were statistically analysed in 29 subjects. […]

[2] = upon oral administration; cited from earlier work
Escherichia coli = settings: constant level, unchanged for several decades; cited from earlier work

O=C1CN(/N=C/C=C/c2ccc([N+](=O)[O-])o2)C(=O)N1 [furazidin]
site of absorption [1]: mainly absorbed in the upper part of the small intestine | half-life [2]: below 1 hour | susceptibility of Escherichia coli to furazidin (Escherichia coli): approx. 90%
